The text below walks through data of US11919902B2, “Aryl-bipyridine amine derivatives as phosphatidylinositol phosphate kinase inhibitors” (HiberCell, Inc., priority 2017, dated 2024).

pIC50: −log10 of the molar value.

One assay addresses T1, GST tagged PIP4KtypeIIA (Homo sapiens, UniProt P48426).
T1 construct: made in house; host or cells: E. coli
T1 sequence (P48426 1-406): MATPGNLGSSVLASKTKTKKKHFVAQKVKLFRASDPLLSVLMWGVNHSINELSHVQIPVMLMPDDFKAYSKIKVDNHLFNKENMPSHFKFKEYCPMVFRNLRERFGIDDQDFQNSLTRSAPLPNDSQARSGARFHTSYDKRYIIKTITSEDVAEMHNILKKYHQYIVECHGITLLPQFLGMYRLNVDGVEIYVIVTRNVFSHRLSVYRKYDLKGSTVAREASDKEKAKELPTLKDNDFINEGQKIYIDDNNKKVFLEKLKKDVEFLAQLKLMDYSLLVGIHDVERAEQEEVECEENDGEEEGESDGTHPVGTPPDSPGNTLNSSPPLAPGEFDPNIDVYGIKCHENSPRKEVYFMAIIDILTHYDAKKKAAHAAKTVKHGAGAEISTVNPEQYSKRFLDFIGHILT
Kind of assay: ADP-glo kinase assay PIP4K 2A (PIP4KtypeIIA inhibition assay). Format: biochemical. To be noted: Table 3; compounds listed under IC50 range headings; 10 uM ATP, 0.5 nM PIP4KIIA. In short, it runs like this:
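Read-out was ADP-Glo luminescence converted to μM ADP, with IC50 plotted as % of no-inhibitor activity against log concentration. Reactions contained 10 μM ATP, 80 μM PI5P with DOPE carrier, and 0.5 nM GST-tagged PIP4KIIA (E. coli-expressed) in pH 7.3 HEPES/MgCl2 buffer with 5% DMSO. Enzyme and compound (≤4.8 μM) were preincubated 1 h at 27 °C before the 1 h reaction.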

A further assay addresses T2, GST tagged PIP4KtypeIIB (Homo sapiens, UniProt P78356).
T2 construct: made in house; host or cells: E. coli
T2 sequence (P78356 1-416): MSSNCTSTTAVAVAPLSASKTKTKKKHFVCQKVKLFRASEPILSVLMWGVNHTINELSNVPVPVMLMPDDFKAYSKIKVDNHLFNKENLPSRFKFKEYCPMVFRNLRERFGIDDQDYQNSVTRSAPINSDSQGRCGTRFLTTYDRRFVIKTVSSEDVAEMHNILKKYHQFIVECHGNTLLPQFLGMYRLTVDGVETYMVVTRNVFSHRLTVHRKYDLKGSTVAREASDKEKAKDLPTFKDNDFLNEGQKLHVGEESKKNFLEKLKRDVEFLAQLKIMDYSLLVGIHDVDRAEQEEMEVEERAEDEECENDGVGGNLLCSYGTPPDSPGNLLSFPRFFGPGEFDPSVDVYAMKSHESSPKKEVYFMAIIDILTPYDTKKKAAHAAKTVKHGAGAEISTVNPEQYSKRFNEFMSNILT
Kind of assay: Trans-FI P kinase assay PIP4K2B (PIP4KtypeIIB inhibition assay). Format: biochemical. Particulars: Table 4; compounds listed under IC50 range headings; 100 uM GTP, 5 nM PIP4KIIB; read-out: Trans-FI P kinase assays: PIP4K2B IC50. In short, it runs like this:
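Transcreener FI fluorescence, converted to GDP by calibration, tracked product from 5 nM E. coli-expressed GST-PIP4KIIB acting on 80 uM PI5P (DOPE carrier) with 100 uM GTP. Compound (top 4.8 uM final, 5% DMSO) was preincubated 1 h at 27 C before the 2 h reaction; IC50 fitted from residual activity.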

Take `CN(C)S(=O)(=O)c1cnc2[nH]cc(-c3cncc(-c4ccc(N5CCCC5=O)cc4)c3)c2c1` [Example 295, N,N-dimethyl-3-(5-(4-(2-oxopyrrolidin-1-yl)phenyl)pyridin-3-yl)-1H-pyrrolo[2,3-b]pyridine-5-sulfonamide]: the negative-log IC50 (pIC50) was 6.00 to 7.00 at GST tagged PIP4KtypeIIA and 5.60 to 6.00 at GST tagged PIP4KtypeIIB.
Taken in the same sequence, the figures for `C[C@H](O)c1cnc2c(c1)c(-c1cncc(-c3ccc(N4CCCC4=O)cc3)c1)cn2C` [Example 294, (S)-1-(4-(5-(5-(1-hydroxyethyl)-1-methyl-1H-pyrrolo[2,3-b]pyridin-3-yl)pyridin-3-yl)phenyl)pyrrolidin-2-one] were 6.00 to 7.00 and 6.00 to 7.00.
The corresponding values for `O=C1CCCN1c1ccc(-c2cncc(-n3ccc4ncccc43)c2)cc1` [Example 253, 1-(4-(5-(1H-pyrrolo[3,2-b]pyridin-1-yl)pyridin-3-yl)phenyl)pyrrolidin-2-one] are 6.00 to 7.00 and 6.00 to 7.00.
Taken in the same sequence, the figures for `CN(C)C(=O)c1ccc(-c2cc(-c3ccnc4[nH]c(C(=O)NC5CCOCC5)cc34)cnc2N)nc1` [Example 137, 4-(2′-amino-5-(dimethylcarbamoyl)-[2,3′-bipyridin]-5′-yl)-N-(tetrahydro-2H-pyran-4-yl)-1H-pyrrolo[2,3-b]pyridine-2-carboxamide] were 6.00 to 7.00 and 7.00 to 8.00.
As to `Cc1cccc2c1CC(=O)N2c1ccc(-c2cncc(-c3ccnc4c3cc3n4CCN(C)C3=O)c2)cc1` [Example 208, 7-methyl-4-(5-(4-(4-methyl-2-oxoindolin-1-yl)phenyl)pyridin-3-yl)-8,9-dihydropyrido[3′,2′:4,5]pyrrolo[1,2-a]pyrazin-6(7H)-one], the pIC50 against GST tagged PIP4KtypeIIA and at GST tagged PIP4KtypeIIB was less than 5.30 throughout.
For `CN(C(=O)c1ccc(-c2cncc(-c3ccnc4[nH]ncc34)c2)cc1)c1cccc(-n2ccnn2)c1` [Example 206, N-(3-(1H-1,2,3-triazol-1-yl)phenyl)-4-(5-(1H-pyrazolo[3,4-b]pyridin-4-yl)pyridin-3-yl)-N-methylbenzamide], the pIC50 on GST tagged PIP4KtypeIIA and at GST tagged PIP4KtypeIIB was less than 5.30 each time.
With `Cc1nc(-c2cncc(-c3ccc(N4CCCC4=O)cc3)c2)c2sc(N3CCCCC3)nc2n1` [Example 286, 1-(4-(5-(5-methyl-2-(piperidin-1-yl)thiazolo[4,5-d]pyrimidin-7-yl)pyridin-3-yl)phenyl)pyrrolidin-2-one], the pIC50 is 7.00 to 8.00 against GST tagged PIP4KtypeIIA and 6.00 to 7.00 on GST tagged PIP4KtypeIIB.
Turning to `CN(C)C(=O)c1ccc(-c2cc(-c3ccnc4[nH]c(C(=O)NC5CCNC5=O)cc34)cnc2N)nc1` (stereo not shown) [Example 149, 4-(2′-amino-5-(dimethylcarbamoyl)-[2,3′-bipyridin]-5′-yl)-N-(2-oxopyrrolidin-3-yl)-1H-pyrrolo[2,3-b]pyridine-2-carboxamide], the negative-log IC50 (pIC50) against GST tagged PIP4KtypeIIA is 5.60 to 6.00; on GST tagged PIP4KtypeIIB, 7.00 to 8.00.
Taken in the same sequence, the figures for `Cc1cc(N2CCCC2=O)ccc1-c1cncc(-c2cn(C)c3ncc(C(C)O)cc23)c1` (stereo not shown) [Example 197, 1-(4-(5-(5-(1-hydroxyethyl)-1-methyl-1H-pyrrolo[2,3-b]pyridin-3-yl)pyridin-3-yl)-3-methylphenyl)pyrrolidin-2-one] were 6.00 to 7.00 and 6.00 to 7.00.
The corresponding values for `O=C(NCc1nc2ccccc2o1)c1cc2c(-c3cncc(-c4ccc(N5CCCC5=O)cc4)c3)ccnc2[nH]1` [Example 245, N-(benzo[d]oxazol-2-ylmethyl)-4-(5-(4-(2-oxopyrrolidin-1-yl)phenyl)pyridin-3-yl)-1H-pyrrolo[2,3-b]pyridine-2-carboxamide] are less than 5.30 and 7.00 to 8.00.
In the case of `O=C(NCc1ccccn1)c1cc2c(-c3cncc(-c4ccc(N5CCCC5=O)cc4)c3)ccnc2[nH]1` [Example 239, 4-(5-(4-(2-oxopyrrolidin-1-yl)phenyl)pyridin-3-yl)-N-(pyridin-2-ylmethyl)-1H-pyrrolo[2,3-b]pyridine-2-carboxamide], the pIC50 on GST tagged PIP4KtypeIIA is 6.00 to 7.00; at GST tagged PIP4KtypeIIB it was 7.00 to 8.00.
For the compound `O=C1CCCN1c1ccc(-c2cncc(-c3csc4ncccc34)c2)cc1` [Example 292, 1-(4-(5-(thieno[2,3-b]pyridin-3-yl)pyridin-3-yl)phenyl)pyrrolidin-2-one], the pIC50 on GST tagged PIP4KtypeIIA and at GST tagged PIP4KtypeIIB was 6.00 to 7.00 each time.
Regarding `O=C(c1cc2c(-c3cncc(-c4ccc(N5CCCC5=O)cc4)c3)ccnc2[nH]1)N1CCCC1` [Example 235, 1-(4-(5-(2-(pyrrolidine-1-carbonyl)-1H-pyrrolo[2,3-b]pyridin-4-yl)pyridin-3-yl)phenyl)pyrrolidin-2-one], the negative-log IC50 (pIC50) on GST tagged PIP4KtypeIIA and at GST tagged PIP4KtypeIIB was 6.00 to 7.00 in each case.
As for `CN(C)C(=O)c1ccc(-c2cc(-c3ccnc4[nH]c(C(=O)N[C@H]5COC[C@H]5N)cc34)cnc2N)nc1` [Example 226, 4-(2′-amino-5-(dimethylcarbamoyl)-[2,3′-bipyridin]-5′-yl)-N-((3R,4S)-4-aminotetrahydrofuran-3-yl)-1H-pyrrolo[2,3-b]pyridine-2-carboxamide], the pIC50 is 5.60 to 6.00 on GST tagged PIP4KtypeIIA and 7.00 to 8.00 on GST tagged PIP4KtypeIIB.
The corresponding values for `CN(C)C(=O)c1ccc(-c2cc(-c3ccnc4[nH]c(C(=O)NCC(=O)O)cc34)cnc2N)nc1` [Example 145, (4-(2′-amino-5-(dimethylcarbamoyl)-[2,3′-bipyridin]-5′-yl)-1H-pyrrolo[2,3-b]pyridine-2-carbonyl)glycine] are 6.00 to 7.00 and 6.00 to 7.00.
The corresponding values for `Cc1cc(N2CCCC2=O)ccc1-c1cncc(-c2cn(C)c3ncc([C@H](C)O)cc23)c1` (single isomer, unassigned) [197(S)] are 6.00 to 7.00 and 5.60 to 6.00.
On to `O=C(NCc1cccnc1)c1cc2c(-c3cncc(-c4ccc(N5CCCC5=O)cc4)c3)ccnc2[nH]1` [Example 238, 4-(5-(4-(2-oxopyrrolidin-1-yl)phenyl)pyridin-3-yl)-N-(pyridin-3-ylmethyl)-1H-pyrrolo[2,3-b]pyridine-2-carboxamide], for which the pIC50 against GST tagged PIP4KtypeIIA is 6.00 to 7.00; at GST tagged PIP4KtypeIIB, 7.00 to 8.00.
Take `O=C(Nc1ccc(-c2cncc(-c3ccnc4[nH]ncc34)c2)cc1)C(=O)N1CC2CCC1C2` (stereo not shown) [Example 203, N-(4-(5-(1H-pyrazolo[3,4-b]pyridin-4-yl)pyridin-3-yl)phenyl)-2-(2-azabicyclo[2.2.1]heptan-2-yl)-2-oxoacetamide]: the pIC50 against GST tagged PIP4KtypeIIA is 6.00 to 7.00; at GST tagged PIP4KtypeIIB it was 5.30 to 5.60.
Take `CN(C)C(=O)c1cnc2occ(-c3cncc(-c4ccc(N5CCCC5=O)cc4)c3)c2c1` [Example 282, N,N-dimethyl-3-(5-(4-(2-oxopyrrolidin-1-yl)phenyl)pyridin-3-yl)furo[2,3-b]pyridine-5-carboxamide]: the pIC50 against GST tagged PIP4KtypeIIA was 7.00 to 8.00; on GST tagged PIP4KtypeIIB it was 6.00 to 7.00.
With `CN(C)C(=O)c1ccc(-c2cc(-c3ccnc4[nH]c(C(N)=O)cc34)cnc2N)nc1` [Example 143, 4-(2′-amino-5-(dimethylcarbamoyl)-[2,3′-bipyridin]-5′-yl)-1H-pyrrolo[2,3-b]pyridine-2-carboxamide], the pIC50 at GST tagged PIP4KtypeIIA is 6.00 to 7.00; on GST tagged PIP4KtypeIIB it was 7.00 to 8.00.
As for `O=C(c1cc2c(-c3cncc(-c4ccc(N5CCCC5=O)cc4)c3)ccnc2[nH]1)N1CCOCC1` [Example 229, 1-(4-(5-(2-(morpholine-4-carbonyl)-1H-pyrrolo[2,3-b]pyridin-4-yl)pyridin-3-yl)phenyl)pyrrolidin-2-one], the pIC50 against GST tagged PIP4KtypeIIA and at GST tagged PIP4KtypeIIB was 6.00 to 7.00 each time.
In the case of `CN(C)C(=O)c1cnc2[nH]c(C3CC3)c(-c3cncc(-c4ccc(N5CCCC5=O)cc4)c3)c2c1` [Example 252, 2-cyclopropyl-N,N-dimethyl-3-(5-(4-(2-oxopyrrolidin-1-yl)phenyl)pyridin-3-yl)-1H-pyrrolo[2,3-b]pyridine-5-carboxamide], the pIC50 against GST tagged PIP4KtypeIIA and at GST tagged PIP4KtypeIIB was 7.00 to 8.00 each time.
As to `CN(C)C(=O)c1cnc2ccn(-c3cncc(-c4ccc(N5CCCC5=O)cc4)c3)c2c1` [Example 254, N,N-dimethyl-1-(5-(4-(2-oxopyrrolidin-1-yl)phenyl)pyridin-3-yl)-1H-pyrrolo[3,2-b]pyridine-6-carboxamide], the pIC50 at GST tagged PIP4KtypeIIA and at GST tagged PIP4KtypeIIB was 6.00 to 7.00 in each case.
